Tests used:
Histone deacetylase 2 = Histone deacetylase 2 (Homo sapiens, UniProt Q92769); experiment: Inhibition of human HDAC2 pre-incubated for 30 mins before substrate addition and measured after 30 mins by HDAC-Glo I/II assay
[1] = molecular target: T1, Protein deacetylase HDAC6 (Homo sapiens, UniProt Q9UBN7); experiment: Inhibition of human HDAC6 pre-incubated for 30 mins before substrate addition and measured after 30 mins by HDAC-Glo I/II assay
T1 sequence (Q9UBN7 whole entry): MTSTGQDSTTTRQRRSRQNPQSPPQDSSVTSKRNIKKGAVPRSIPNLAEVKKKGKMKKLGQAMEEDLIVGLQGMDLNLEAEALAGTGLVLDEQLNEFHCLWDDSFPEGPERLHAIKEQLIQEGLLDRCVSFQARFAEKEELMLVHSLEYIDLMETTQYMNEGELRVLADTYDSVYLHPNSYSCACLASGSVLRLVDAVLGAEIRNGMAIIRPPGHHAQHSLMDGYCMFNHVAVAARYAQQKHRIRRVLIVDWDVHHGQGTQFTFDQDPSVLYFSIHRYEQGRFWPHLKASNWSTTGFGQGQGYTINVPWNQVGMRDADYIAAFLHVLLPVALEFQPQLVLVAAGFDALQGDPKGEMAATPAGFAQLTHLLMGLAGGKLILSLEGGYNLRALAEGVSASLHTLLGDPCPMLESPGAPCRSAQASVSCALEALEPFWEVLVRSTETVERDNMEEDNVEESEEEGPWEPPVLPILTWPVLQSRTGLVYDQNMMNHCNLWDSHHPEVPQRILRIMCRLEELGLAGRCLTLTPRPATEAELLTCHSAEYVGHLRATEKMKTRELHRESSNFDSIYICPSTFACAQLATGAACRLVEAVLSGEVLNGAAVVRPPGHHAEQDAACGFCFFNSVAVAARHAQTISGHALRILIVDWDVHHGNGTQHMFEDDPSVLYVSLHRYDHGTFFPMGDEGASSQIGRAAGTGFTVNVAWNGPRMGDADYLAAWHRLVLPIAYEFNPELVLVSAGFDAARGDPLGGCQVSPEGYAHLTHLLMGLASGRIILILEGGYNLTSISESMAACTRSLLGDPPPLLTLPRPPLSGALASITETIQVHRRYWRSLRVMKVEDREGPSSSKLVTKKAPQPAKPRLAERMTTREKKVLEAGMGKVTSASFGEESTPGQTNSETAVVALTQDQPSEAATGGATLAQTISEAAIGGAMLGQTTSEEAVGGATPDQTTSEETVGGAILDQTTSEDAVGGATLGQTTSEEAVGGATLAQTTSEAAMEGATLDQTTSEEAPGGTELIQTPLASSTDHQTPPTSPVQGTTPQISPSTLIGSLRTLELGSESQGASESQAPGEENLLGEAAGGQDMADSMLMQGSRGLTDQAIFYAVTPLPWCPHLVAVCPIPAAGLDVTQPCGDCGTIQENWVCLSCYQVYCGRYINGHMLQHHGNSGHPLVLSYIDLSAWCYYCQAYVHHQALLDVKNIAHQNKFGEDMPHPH

Histone deacetylase 1 = Histone deacetylase 1 (Homo sapiens, UniProt Q13547); experiment: Inhibition of human HDAC1 pre-incubated for 30 mins before substrate addition and measured after 30 mins by HDAC-Glo I/II assay
Histone deacetylase 9 = Histone deacetylase 9 (Homo sapiens, UniProt Q9UKV0); experiment: Inhibition of human HDAC9 pre-incubated for 30 mins before substrate addition and measured after 30 mins by HDAC-Glo I/II assay
[2] = molecular target: T2, Histone deacetylase (Rattus norvegicus) (UniProt Q6P6W3+Q99P99+Q99P96+Q4QQW4+Q99P97+Q5RJZ2+B1WBY8); settings: at 10 µM
Description: Inhibition of rat liver HDAC at 10 uM pre-incubated for 15 mins before Boc-Lys(Ac)-AMC substrate addition and measured after 30 mins by fluorometry

Histone deacetylase 8 = molecular target: T3, Histone deacetylase 8 (Homo sapiens, UniProt Q9BY41); experiment: Inhibition of human HDAC8 pre-incubated for 30 mins before substrate addition and measured after 30 mins by HDAC-Glo I/II assay
T3 sequence (Q9BY41 whole entry): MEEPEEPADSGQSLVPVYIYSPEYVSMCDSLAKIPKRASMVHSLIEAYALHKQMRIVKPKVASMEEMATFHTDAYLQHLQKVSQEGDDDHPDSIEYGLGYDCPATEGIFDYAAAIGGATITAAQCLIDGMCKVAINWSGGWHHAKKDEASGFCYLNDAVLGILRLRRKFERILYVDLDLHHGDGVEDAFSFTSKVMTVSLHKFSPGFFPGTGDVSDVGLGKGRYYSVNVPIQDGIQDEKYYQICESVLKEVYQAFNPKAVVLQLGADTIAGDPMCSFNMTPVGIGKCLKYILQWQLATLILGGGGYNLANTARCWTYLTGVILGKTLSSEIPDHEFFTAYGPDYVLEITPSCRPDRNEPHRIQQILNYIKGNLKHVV

Histone deacetylase 4 = Histone deacetylase 4 (Homo sapiens, UniProt P56524); experiment: Inhibition of human HDAC4 pre-incubated for 30 mins before substrate addition and measured after 30 mins by HDAC-Glo I/II assay
Histone deacetylase 3 = Histone deacetylase 3 (Homo sapiens, UniProt O15379); experiment: Inhibition of human HDAC3 pre-incubated for 30 mins before substrate addition and measured after 30 mins by HDAC-Glo I/II assay
[3] = molecular target: T2, Histone deacetylase (Rattus norvegicus); settings: at 0.1 µM
Description: Inhibition of rat liver HDAC at 0.1 uM pre-incubated for 15 mins before Boc-Lys(Ac)-AMC substrate addition and measured after 30 mins by fluorometry

Chain of Histone deacetylase 4 (P56524 whole entry): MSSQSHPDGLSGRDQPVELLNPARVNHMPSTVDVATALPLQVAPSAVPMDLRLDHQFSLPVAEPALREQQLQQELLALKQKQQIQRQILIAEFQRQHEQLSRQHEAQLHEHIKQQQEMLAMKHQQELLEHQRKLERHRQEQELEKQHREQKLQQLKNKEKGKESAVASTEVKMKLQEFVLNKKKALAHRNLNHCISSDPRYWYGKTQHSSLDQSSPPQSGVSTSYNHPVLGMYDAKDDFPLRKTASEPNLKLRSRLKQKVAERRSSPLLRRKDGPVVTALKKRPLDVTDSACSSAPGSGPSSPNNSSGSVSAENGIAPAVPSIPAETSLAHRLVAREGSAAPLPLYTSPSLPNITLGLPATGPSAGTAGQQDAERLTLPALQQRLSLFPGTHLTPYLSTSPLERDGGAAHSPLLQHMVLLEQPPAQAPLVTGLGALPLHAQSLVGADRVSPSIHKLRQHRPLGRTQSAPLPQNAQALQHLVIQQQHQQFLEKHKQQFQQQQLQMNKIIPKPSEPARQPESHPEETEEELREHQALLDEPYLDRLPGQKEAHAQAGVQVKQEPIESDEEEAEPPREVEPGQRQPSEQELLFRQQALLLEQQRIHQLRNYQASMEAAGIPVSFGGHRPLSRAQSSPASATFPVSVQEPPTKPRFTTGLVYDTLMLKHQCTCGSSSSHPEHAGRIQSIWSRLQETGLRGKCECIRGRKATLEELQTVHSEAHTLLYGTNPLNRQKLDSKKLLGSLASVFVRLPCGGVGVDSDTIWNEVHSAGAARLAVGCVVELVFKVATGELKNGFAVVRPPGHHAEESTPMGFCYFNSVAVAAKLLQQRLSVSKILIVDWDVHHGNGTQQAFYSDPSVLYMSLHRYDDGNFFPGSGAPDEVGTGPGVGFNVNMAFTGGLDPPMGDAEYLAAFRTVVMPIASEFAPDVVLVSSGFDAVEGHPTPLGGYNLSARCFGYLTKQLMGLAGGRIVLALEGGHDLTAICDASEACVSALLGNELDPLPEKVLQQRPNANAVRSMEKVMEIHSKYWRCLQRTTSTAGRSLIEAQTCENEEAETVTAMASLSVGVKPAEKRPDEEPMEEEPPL
Chain of Histone deacetylase 2 (Q92769 whole entry): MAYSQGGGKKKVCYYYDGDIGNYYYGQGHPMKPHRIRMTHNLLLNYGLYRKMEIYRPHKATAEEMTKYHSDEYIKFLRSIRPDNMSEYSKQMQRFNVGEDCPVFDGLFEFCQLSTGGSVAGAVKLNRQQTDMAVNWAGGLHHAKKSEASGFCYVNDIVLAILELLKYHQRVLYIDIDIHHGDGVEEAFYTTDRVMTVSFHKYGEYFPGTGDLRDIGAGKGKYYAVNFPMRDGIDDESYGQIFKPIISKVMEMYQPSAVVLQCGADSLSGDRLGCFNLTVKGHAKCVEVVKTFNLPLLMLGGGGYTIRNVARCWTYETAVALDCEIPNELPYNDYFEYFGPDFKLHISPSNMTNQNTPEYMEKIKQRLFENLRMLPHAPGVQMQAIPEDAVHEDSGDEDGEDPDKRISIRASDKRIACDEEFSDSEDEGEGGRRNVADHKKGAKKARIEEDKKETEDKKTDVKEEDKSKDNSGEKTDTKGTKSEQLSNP
Chain of Histone deacetylase 1 (Q13547 whole entry): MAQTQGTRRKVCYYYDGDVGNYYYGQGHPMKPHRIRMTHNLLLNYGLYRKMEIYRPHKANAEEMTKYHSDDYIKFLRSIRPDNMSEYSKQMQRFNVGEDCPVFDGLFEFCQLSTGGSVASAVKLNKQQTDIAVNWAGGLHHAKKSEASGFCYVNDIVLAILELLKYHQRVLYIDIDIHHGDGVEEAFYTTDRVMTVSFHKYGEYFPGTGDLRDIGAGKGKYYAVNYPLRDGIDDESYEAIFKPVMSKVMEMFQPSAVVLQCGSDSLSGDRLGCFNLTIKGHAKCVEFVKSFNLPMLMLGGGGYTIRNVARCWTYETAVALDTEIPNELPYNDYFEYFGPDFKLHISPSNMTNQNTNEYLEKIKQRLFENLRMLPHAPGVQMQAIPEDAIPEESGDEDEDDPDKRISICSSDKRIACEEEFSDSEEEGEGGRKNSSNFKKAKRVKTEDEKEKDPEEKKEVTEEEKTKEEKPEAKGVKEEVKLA
Chain of Histone deacetylase 9 (Q9UKV0 whole entry): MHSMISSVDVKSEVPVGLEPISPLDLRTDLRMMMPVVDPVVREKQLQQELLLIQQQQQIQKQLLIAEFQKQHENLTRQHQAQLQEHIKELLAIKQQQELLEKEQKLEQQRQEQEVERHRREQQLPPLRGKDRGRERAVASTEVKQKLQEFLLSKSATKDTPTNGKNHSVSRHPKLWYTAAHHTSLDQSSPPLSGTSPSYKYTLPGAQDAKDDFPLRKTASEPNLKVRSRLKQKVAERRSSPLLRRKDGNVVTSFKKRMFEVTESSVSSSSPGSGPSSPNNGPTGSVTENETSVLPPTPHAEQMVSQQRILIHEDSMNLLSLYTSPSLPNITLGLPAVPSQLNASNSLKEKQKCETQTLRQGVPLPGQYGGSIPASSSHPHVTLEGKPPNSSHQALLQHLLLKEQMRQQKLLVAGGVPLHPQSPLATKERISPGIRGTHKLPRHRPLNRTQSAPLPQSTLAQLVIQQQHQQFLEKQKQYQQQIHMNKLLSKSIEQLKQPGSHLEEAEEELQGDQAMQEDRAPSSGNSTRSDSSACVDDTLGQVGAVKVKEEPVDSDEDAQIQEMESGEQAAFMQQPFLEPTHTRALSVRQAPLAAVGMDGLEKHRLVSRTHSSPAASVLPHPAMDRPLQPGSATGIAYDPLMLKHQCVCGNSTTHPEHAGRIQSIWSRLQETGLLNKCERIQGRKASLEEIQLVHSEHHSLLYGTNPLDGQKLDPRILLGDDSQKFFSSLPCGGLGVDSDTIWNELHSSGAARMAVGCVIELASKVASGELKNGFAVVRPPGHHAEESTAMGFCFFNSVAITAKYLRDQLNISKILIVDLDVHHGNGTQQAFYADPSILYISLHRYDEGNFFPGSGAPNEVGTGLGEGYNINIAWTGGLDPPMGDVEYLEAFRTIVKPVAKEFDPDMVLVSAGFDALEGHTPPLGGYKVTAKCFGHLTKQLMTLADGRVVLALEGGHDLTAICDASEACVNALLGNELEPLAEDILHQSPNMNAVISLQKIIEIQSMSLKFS
Chain of Histone deacetylase 3 (O15379 whole entry): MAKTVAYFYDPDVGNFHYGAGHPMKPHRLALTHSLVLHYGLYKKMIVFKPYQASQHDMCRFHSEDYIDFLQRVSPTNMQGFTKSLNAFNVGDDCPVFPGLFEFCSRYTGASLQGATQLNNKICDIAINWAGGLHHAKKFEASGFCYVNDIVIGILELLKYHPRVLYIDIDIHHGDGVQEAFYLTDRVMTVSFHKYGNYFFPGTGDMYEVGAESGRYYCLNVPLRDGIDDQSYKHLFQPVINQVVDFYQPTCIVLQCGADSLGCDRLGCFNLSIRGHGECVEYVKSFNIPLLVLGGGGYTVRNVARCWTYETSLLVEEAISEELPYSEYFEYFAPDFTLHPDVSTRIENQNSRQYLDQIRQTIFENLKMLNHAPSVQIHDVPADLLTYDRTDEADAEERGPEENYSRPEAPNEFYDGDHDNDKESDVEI

Row | IC50 (Histone deacetylase 2) | IC50 [1] | IC50 (Histone deacetylase 1) | IC50 (Histone deacetylase 9) | inhibition [2] | IC50 (Histone deacetylase 8) | IC50 (Histone deacetylase 4) | IC50 (Histone deacetylase 3) | inhibition [3] | SMILES
1 | 8.2 nM | 58 nM | 3.8 nM | 5.2 nM | 98% | 6 nM | 58 nM | 15 nM | 55% | CC1(C)CC(=O)Nc2ccc(C(=O)NC[C@H]3CC[C@H](/C=C/C(=O)NO)CC3)cc21
2 | 20 nM | 430 nM | 24 nM | 35 nM | 98% | 53 nM | 120 nM | 85 nM | 45% | O=C(CCCCCCNC(=O)c1ccc2c(c1)CCC(=O)N2)NO
3 | 45 nM | 66 nM | 35 nM | 58 nM | 99% | 48 nM | 63 nM | 54 nM | 66% | O=C(CCCCCCC(=O)Nc1ccc2[nH]c(=O)ccc2c1)NO

Source: ChEMBL document CHEMBL3351757, “Design and synthesis of novel and highly-active pan-histone deacetylase (pan-HDAC) inhibitors” (Bioorg Med Chem, 2014)
